In one data set the test system is rat whole blood. Description: Hemolysis screening of surfactants. The following applies: 5% surfactant in 0.9% saline admixed 1:1 with rat whole blood; visually distinct red hue of supernate. The class given is cell-based. As for the experimental part:
Surfactant Examples 1a-1k according to general Structure I above, and 2a of Structure II above, were prepared following the above procedures.
(§1) Surfactants were screened initially by preparing 5% solutions/dispersions of the surfactant in 0.9% saline and admixing 1:1 with rat whole blood. Centrifugation (6 minutes) at 2400 rpm afforded packed cells and a supernate. […] The discoloration of the supernate was not quantified colorimetrically.

A further data set relates to Sprague Dawley rats. Description: Preliminary acute toxicity screen. The class given is in vivo. The following applies: 5% sonicated dispersion in 0.9% saline, two Sprague Dawley rats, 14 days.
Data set [1] can be described thus: Solubility/dispersion of surfactant in 0.9% saline. Type of data set: physicochemical. The following applies: 5% solution/dispersion in 0.9% saline. As for the experimental part:
as §1

Data set [2] can be described thus: Organ distribution 14 days after infusion (Table V). Type of data set: in vivo, rats. The following applies: for Kidney / Liver / Lung / Spleen / Survival / Hct: 14 days after infusion of 40 cc/Kg; for Hct: hematocrit. As for the experimental part:
The impact of the emulsions of Table IV on organ distribution of PFC was then determined by sacrificing the test animals 14 days after infusion.

Data set [3] in a line: Perfluorochemical circulatory blood residence time (fluorocrit). Type of data set: in vivo, rats. The following applies: perfluorochemical remaining at 48 hours.
Protocol: The emulsions of Tables II and III were studied in a randomized, ten animal per emulsion experiment in which each animal was infused with 20 cc/Kg of emulsion and sacrificed at 48 hours to determine the circulatory perfluorochemical or perfluorocarbon content called "fluorocrit" and abbreviated "Fct". The Fct represents that percentage of the blood that is perfluorocarbon in v/v %.
After 48 hrs., the animals were anesthetized, the chest cavity was opened, and a blood sample (1-2ml) was withdrawn from the still beating heart. Three to 4 drops of the sample were added to each of three previously tared 4 ml vials containing 10%KOH/EtOH (1.0 ml). The vials were weighed to determine the amount of blood added, then reweighed after an internal standard mixture of 1% octane in CFCl3 (1.5-2.0ml) was added. H2 O was added to the vial until full, then the vial was placed on a rotary shaker at 240 rpm for 20 minutes. The lower layer was withdrawn, and passed through a glass wool plugged pasteur pipette containing silica gel (0.3-0.4g). […] The program parameters specified a hold period at 40° C. for 4 minutes, followed by a 10° C./minute temperature rise until 140° was attained.
The nature of data set [4]: Emulsion mean particle size and stability after 4 days in serum albumin/Lactated Ringer's at 37° C. The class given is physicochemical. From the text: The surfactants of Table I were used to make 40 volume % (v/v) perfluorochemical emulsions. In the above described European Pat. Appln. […] Therefore, those perfluorochemical emulsions were used as a control for comparison with the perfluorochemical emulsions of this invention.
For comparison with the data of Table II, the study was repeated with a constant loading of 2 w/v % surfactant, and 2 w/v % safflower oil adjuvant for the control and surfactants of this invention.

The next data set can be described thus: Blood hematology. Type of data set: in vivo, rats. The following applies: Table VIII, accredited outside laboratories. An excerpt:
The effects on the liver and lung were not as pronounced in Table VI as in Table V. However, with respect to Table VII, it is believed that the smaller values obtained for the liver and spleen are also real.

Data set [5] can be described thus: Organ distribution, additional separate study (Table VI). Type of data set: in vivo, rats.
Data set [6] can be described thus: Organ distribution, additional separate study (Table VII). Type of data set: in vivo, rats.
For data set [7] the following is noted: K. Yokoyama et al; cited from earlier work.

For `CCCCCCCCOCC(COP(=O)([O-])OCC[N+](C)(C)C)OCCCCCCCC` (stereo not shown) [Cpd 1a, 1,2-dioctylglycero-3-phosphoryl choline], the Hemolytic result in the data set on rat whole blood is “hemolytic and Yes”.

On to `CCCCCCCCCCCCCCOCC(COP(=O)([O-])OCC[N+](C)(C)C)OCCCCCCCCCCCCCC` (stereo not shown) [Cpd 1b, 1,2-ditetradecylglycero-3-phosphoryl choline], for which, in the data set with rat whole blood, the Hemolytic result was “hemolytic and Yes”.

With `CCCCCCCCCCCCCCCCOCC(COP(=O)([O-])OCC[N+](C)(C)C)OCCCCCCCCCCCCCCCC` (stereo not shown) [Cpd 1c, 1,2-dihexadecylglycero-3-phosphoryl choline], in the data set with Sprague Dawley rats, the “Survival at 40 cc/Kg of 5% solution” value is 2/2. In addition, the Hemolytic entry in the data set with rat whole blood is “No”.

In the case of `CCCCCCCCCCCCCCCCCCOCC(COP(=O)([O-])OCC[N+](C)(C)C)OCCCCCCCCCCCCCCCCCC` (stereo not shown) [Cpd 1d, 1,2-di-octadecylglycero-3-phosphoryl choline], the Hemolytic result with rat whole blood was “No”. For the same molecule, the “Solubility (entry in survival column)” value in [1] was “insoluble cpd”.

As to `CCCCCCCCCCCCCCCCOCC(COP(=O)([O-])OCC[N+](C)(C)C)OCCCCCCCCCCCCCC` (stereo not shown) [Cpd 1e, 1-hexadecyl-2-tetradecylglycero-3-phosphoryl choline], the “Survival at 40 cc/Kg of 5% solution” value in the data set on Sprague Dawley rats was 0/2. Further, in the data set with rat whole blood, the Hemolytic result was “No”. In [2], this molecule displayed a Kidney of 1.06 g/100 g, a Liver of 7.97 g/100 g, a Lung of 0.57 g/100 g and a Spleen of 1.55 g/100 g. In [2], the Survival was 9/10 and the Hct is listed as 35.8 v/v %.

With `CCCCCCCCCCCCCCCCCCOCC(COP(=O)([O-])OCC[N+](C)(C)C)OCCCCCCCCCCCCCC` (stereo not shown) [Cpd 1f, 1-octadecyl-2-tetradecylglycero-3-phosphoryl choline], in the data set on Sprague Dawley rats, the “Survival at 40 cc/Kg of 5% solution” value is 2/2. In data set [3], the “circulatory blood residence / stability in the circulatory blood system (in words)” value was “increased stabilities in the circulatory blood system”. The Hemolytic result in the data set on rat whole blood is given as “No”.

For `CCCCCCCCCCCCCCCCCCOC(COCCCCCCCCCCCCCC)COP(=O)([O-])OCC[N+](C)(C)C` (stereo not shown) [Cpd 1g, 1-tetradecyl-2-octadecylglycero-3-phosphoryl choline], the “Survival at 40 cc/Kg of 5% solution” value in the data set with Sprague Dawley rats is 0/2. For the same molecule, in the data set on rat whole blood, the Hemolytic result was “No”. In data set [2], the Kidney is reported as 0.94 g/100 g, the Liver stood at 7.52 g/100 g, the Lung is 0.55 g/100 g and the Spleen is 1.49 g/100 g. Moreover, in data set [2], the Survival is 6/10 and the Hct is on record as 39.0 v/v %.

In the case of `CCCCCCCCCCCCCCCCCCOC(COCCCCCCCCCCCCCCCC)COP(=O)([O-])OCC[N+](C)(C)C` (stereo not shown) [Cpd 1h, 1-hexadecyl-2-octadecylglycero-3-phosphoryl choline], the “Survival at 40 cc/Kg of 5% solution” value in the data set with Sprague Dawley rats is given as 0/2. For the same molecule, the Hemolytic entry in the data set with rat whole blood is “No”.

Turning to `CCCCCCCC/C=C\CCCCCCCCOCC(COP(=O)([O-])OCC[N+](C)(C)C)OCCCCCCCC/C=C\CCCCCCCC` (stereo not shown) [Cpd 1i, 1,2-Dioleylglycerophosphoryl choline], the “Survival at 40 cc/Kg of 5% solution” value in the data set on Sprague Dawley rats is 2/2. For the same molecule, the Hemolytic entry in the data set with rat whole blood was “No”. In [2], this molecule displayed a Kidney of 0.96 g/100 g, a Liver of 7.47 g/100 g, a Lung of 0.64 g/100 g and a Spleen of 2.56 g/100 g. Also, in data set [2], the Survival is on record as 8/10 and the Hct is 34.7 v/v %. Further, in data set [4] (Table II, 1.8 w/v % Cpd., 2.0 w/v % oil, 40 v/v % PFC emulsion, sterilized 15 min 121° C.), the “Mean Particle Size” value amounted to 304 nM. The “4 days Serum” value in data set [4] (Table II, 1.8 w/v % Cpd., 2.0 w/v % oil, particle size after 4 days at 37° C. in serum albumin/Lactated Ringer's) stood at 258 nM. In [4] (Table III, 2 w/v % surfactant, 2 w/v % safflower oil), the “Mean Particle Size” value came to 323 nM. The “4 days Serum” value in data set [4] (Table III, 2 w/v % surfactant, 2 w/v % safflower oil, 4 days at 37° C. in serum albumin/Lactated Ringer's) was 301 nM.

Take `CCCCCCCCCCCCCCCCCCOCC(COP(=O)([O-])OCC[N+](C)(C)C)OCCCCCCCCCCCCCCCC` (stereo not shown) [Cpd 1j, 1-octadecyl-2-hexadecylglycero-3-phosphoryl choline]: the “circulatory blood residence / stability in the circulatory blood system (in words)” value in data set [3] is reported as “increased stabilities in the circulatory blood system”. In the data set “Blood hematology”, this molecule registered a Platelets of 1024222, an RBC of 5.42 and a Reticulocytes of 313281. This molecule registered a Hemoglobin in the data set “Blood hematology” (in g/dL (unit assumed)) of 11.04. In [5], this molecule had a Kidney of 0.97 g/100 g, a Liver of 7.44 g/100 g, a Lung of 0.98 g/100 g and a Spleen of 1.70 g/100 g. For the same molecule, the Survival in [5] is 10/10. Moreover, in data set [5] (hematocrit), the Hct is 36.1 v/v %. In addition, in data set [6], the Kidney is given as 0.901 g/100 g, the Liver was 7.39 g/100 g, the Lung was found to be 0.828 g/100 g and the Spleen is listed as 1.46 g/100 g. Besides, in data set [6], the Survival was 10/10. The Hct in [6] (hematocrit) amounted to 37.7 v/v %. Besides, in data set [2], the Kidney worked out at 0.89 g/100 g, the Liver amounted to 6.64 g/100 g, the Lung stood at 0.57 g/100 g and the Spleen is reported as 1.66 g/100 g. Besides, in [2], the Survival is recorded as 9/10 and the Hct is given as 44.4 v/v %. Also, in data set [2] (vs control), the “drop in hematocrit after infusion (in words)” value was “so striking”.

For `CCCCCCCCCCCCCCCCOC(COCCCCCCCCCCCCCC)COP(=O)([O-])OCC[N+](C)(C)C` (stereo not shown) [Cpd 1k, 1-tetradecyl-2-hexadecylglycero-3-phosphoryl choline], in data set [2], the Kidney is recorded as 1.22 g/100 g, the Liver was 7.76 g/100 g, the Lung is recorded as 0.64 g/100 g and the Spleen is 2.09 g/100 g. For the same molecule, in [2], the Survival is 9/10 and the Hct was found to be 36.5 v/v %.

`FC(F)(F)C(F)(F)C(F)(F)N(C(F)(F)C(F)(F)C(F)(F)F)C(F)(F)C(F)(F)C(F)(F)F` [perfluorotripropylamine]: the “half life in the liver and other body tissues (in words)” value in data set [7] is “longer than desirable”.

These data come from patent US5439944A, “Red blood cell substitute emulsions containing alkyl- or alkylglyucerophosphoryl choline surfactants and methods of use” (priority 1993, dated 1995).
